The subject of experiment [1] is Kit1 (DNA, G4) AGGGAGGGCGCTGGGAGGAGGG
Nature of the experiment: fluorimetric titration (ligand emission). Particulars: 100 mM KCl; 10 mM Tris, pH 7.4; 1:1 binding model.

Experiment [2] relates to F21T-RNA (RNA, G4) GGGUUAGGGUUAGGGUUAGGG
The experiment is described as follows: FRET melting. Conditions: 100 mM KCl; 10 mM LiCac, pH 7.3; 0.2 μM DNA, 2 μM compound (1:10).

For experiment [3], the system named is Kit1 (DNA, G4) AGGGAGGGCGCTGGGAGGAGGG
Nature of the experiment: thiazole orange displacement (FID). Particulars: 100 mM KCl; 10 mM LiCaco, pH 7.2; 1 μM DNA, 2 μM thiazole orange displaced.

Experiment [4] has as its system ds26 (DNA, duplex) CAATCGGATCGAATTCGATCCGATTG
Nature of the experiment: thiazole orange displacement (FID). Conditions: 100 mM KCl; 10 mM LiCaco, pH 7.2; 1 μM DNA, 3 μM thiazole orange displaced.

Experiment [5] relates to cMyc (DNA, G4) TGAGGGTGGGTAGGGTGGGTAA
Nature of the experiment: thiazole orange displacement (FID). Conditions: 100 mM KCl; 10 mM LiCaco, pH 7.2; 1 μM DNA, 2 μM thiazole orange displaced.

Experiment [6] has the same test system. The experiment is described as follows: fluorimetric titration (ligand emission). Particulars: 100 mM KCl; 10 mM Tris, pH 7.4; 1:1 binding model.
For experiment [7], the system named is ds26 (labelled) (DNA, duplex) CAATCGGATCGAATTCGATCCGATTG
Nature of the experiment: FRET melting. Conditions: 100 mM KCl; 10 mM LiCac, pH 7.3; 0.2 μM DNA, 2 μM compound (1:10).

Experiment [8] relates to HTelo (F21T-K / F21T-Na) (DNA, G4) GGGTTAGGGTTAGGGTTAGGG
The experiment is described as follows: FRET melting. Conditions: 10 mM LiCac, pH 7.3, 0.2 μM DNA, 2 μM compound (1:10).

The subject of experiment [9] is TBA (labelled) (DNA, G4) GGTTGGTGTGGTTGG
Nature of the experiment: FRET melting. Particulars: 100 mM KCl; 10 mM LiCac, pH 7.3; 0.2 μM DNA, 1 μM compound (1:5).

Experiment [10] has as its system 26TTA (labelled) (DNA, G4) TTAGGGTTAGGGTTAGGGTTAGGGTT
The experiment is described as follows: FRET melting. Particulars: 100 mM KCl; 10 mM LiCac, pH 7.3; 0.2 μM DNA, 2 μM compound (1:10).

The test system of experiment [11] is Kit1 (labelled) (DNA, G4) AGGGAGGGCGCTGGGAGGAGGG
Nature of the experiment: FRET melting. Particulars: 100 mM KCl; 10 mM LiCac, pH 7.3; 0.2 μM DNA, 2 μM compound (1:10).

For experiment [12], the system named is Bcl2 (labelled) (DNA, G4) GGGCGCGGGAGGAATTGGGCGGG
The experiment is described as follows: FRET melting. Conditions: 100 mM KCl; 10 mM LiCac, pH 7.3; 0.2 μM DNA, 2 μM compound (1:10).

Experiment [13] has as its system HTelo (HTelo22) (DNA, G4) AGGGTTAGGGTTAGGGTTAGGG
The experiment is described as follows: fluorimetric titration (ligand emission). Particulars: 100 mM KCl; 10 mM Tris, pH 7.4; 1:1 binding model.

Experiment [14] shares this test system. The experiment is described as follows: thiazole orange displacement (FID). Conditions: 100 mM KCl; 10 mM LiCaco, pH 7.2; 1 μM DNA, 2 μM thiazole orange displaced.
Experiment [15] relates to ds26 (DNA, duplex) CAATCGGATCGAATTCGATCCGATTG
Nature of the experiment: fluorimetric titration (ligand emission). Particulars: 100 mM KCl; 10 mM Tris, pH 7.4; 1:1 binding model.

Experiment [16] deals with Kit2 (labelled) (DNA, G4) CGGGCGGGCGCGAGGGAGGGG
The experiment is described as follows: FRET melting. Conditions: 100 mM KCl; 10 mM LiCac, pH 7.3; 0.2 μM DNA, 2 μM compound (1:10).

For experiment [17], the system named is Bcl2 (DNA, G4) GGGCGCGGGAGGAATTGGGCGGG
The experiment is described as follows: fluorimetric titration (ligand emission). Particulars: 100 mM KCl; 10 mM Tris, pH 7.4; 1:1 binding model.

For experiment [18], the system named is 24TTG (labelled) (DNA, G4) TTGGGTTAGGGTTAGGGTTAGGGA
The experiment is described as follows: FRET melting. Conditions: 100 mM KCl; 10 mM LiCac, pH 7.3; 0.2 μM DNA, 2 μM compound (1:10).

Bounds are passed on as bounds.

The ΔTm is the change in melting temperature against a reference sample.

On to `C[N+](C)(C)CCCOc1ccc(N(c2ccc(OCCC[N+](C)(C)C)cc2)c2ccc(-c3ccc4c(c3)C3(c5ccccc5-c5ccccc53)c3cc(-c5ccc(N(c6ccc(OCCC[N+](C)(C)C)cc6)c6ccc(OCCC[N+](C)(C)C)cc6)cc5)ccc3-4)cc2)cc1`, for which the Ka in experiment [1] was 4.0(0.4)x10^5 M^-1; in experiment [6] it was 4.5(0.8)x10^5 M^-1; in experiment [13], > 10^7 M^-1; in experiment [15] it was 3.5(0.5)x10^5 M^-1; in [17], 5.4(0.5)x10^5 M^-1. The thermal shift (ΔTm) is greater than 26.5 °C in experiment [2]; greater than 35 °C in experiment [8] (100 mM KCl); 24.8 °C in experiment [8] (100 mM NaCl); 19.4 °C in experiment [9]; less than 12 °C in experiment [10]; greater than 35 °C in experiment [11]. Also, the results for the ΔTm in [12], in [16] and in experiment [18] were 30.5 °C, 27.9 °C and less than 12 °C, respectively. For the same compound, the DC50 in experiment [3] was 3.00 µM; in experiment [4], greater than 5 µM; in experiment [5], 2.84 µM; in experiment [14], greater than 5 µM. Moreover, in experiment [7], the binding entry is reported as “no”.
Take `O=S(=O)(O)CCCCOc1ccc(N(c2ccc(OCCCCS(=O)(=O)O)cc2)c2ccc(-c3ccc4c(c3)C3(c5ccccc5-c5ccccc53)c3cc(-c5ccc(N(c6ccc(OCCCCS(=O)(=O)O)cc6)c6ccc(OCCCCS(=O)(=O)O)cc6)cc5)ccc3-4)cc2)cc1`: the Ka is recorded as < 10^3 M^-1 in experiment [1]; 5.6(0.1)x10^4 M^-1 in [6]; 7.2(2)x10^4 M^-1 in experiment [13]; < 10^3 M^-1 in experiment [15]; 5.5(0.3)x10^4 M^-1 in experiment [17]. Also, the DC50 in experiment [3] was greater than 5 µM; in experiment [4], 3.52 µM; in experiment [5], greater than 5 µM; in experiment [14], greater than 5 µM.
